# Test results published in PubChem BioAssay (NCI).
#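 All cell lines were grown in 96-well plates and treated with compound for 48 hours. GI50 marks 50% less growth. TGI denotes the concentration required for complete inhibition of growth.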
# What was measured:
# Assay in all cases: NCI tumour cell line growth inhibition, 48 h
# [1] = test system: 786-0 renal
# [2] = test system: HL-60(TB) leukemia
# [3] = test system: CAKI-1 renal
# [4] = test system: HCT-15 colon
# [5] = test system: HOP-62 NSCLC
# [6] = test system: EKVX NSCLC
# [7] = test system: IGROV1 ovarian
# [8] = test system: SK-MEL-2 melanoma
# [9] = test system: T-47D breast
# [10] = test system: MCF7 breast
smiles,measurement,setting,value
C/C(=N/NC(=O)CC(=O)N(C(=O)c1ccccc1Cl)c1ccc(C)cc1)c1cc2ccccc2oc1=O,TGI,[1],> 100 µM
same,TGI,[2],> 100 µM
same,TGI,[3],> 100 µM
same,TGI,[4],> 100 µM
same,TGI,[5],> 100 µM
same,TGI,[6],> 100 µM
same,TGI,[7],> 100 µM
COc1ccc(C2ONC3=NCCN32)cc1 (stereo unspecified),GI50,[1],25.5 µM
same,TGI,[1],> 100 µM
same,GI50,[8],> 100 µM
same,TGI,[8],> 100 µM
same,GI50,[3],48.2 µM
same,TGI,[3],> 100 µM
same,GI50,[4],29.2 µM
same,TGI,[4],> 100 µM
same,GI50,[5],84.9 µM
same,TGI,[5],> 100 µM
same,GI50,[6],> 100 µM
same,TGI,[6],> 100 µM
same,GI50,[7],73.2 µM
same,TGI,[7],> 100 µM
same,GI50,[9],99.4 µM
same,TGI,[9],> 100 µM
same,GI50,[10],61.1 µM
same,TGI,[10],> 100 µM
COc1ccc(-c2cc(/C=C/C(=O)c3cc(OC)c(OC)c(OC)c3)[nH]n2)cc1OC,GI50,[1],1.5 µM
same,TGI,[1],2.9 µM
same,GI50,[8],2.69 µM
same,TGI,[8],7.7 µM
same,GI50,[2],1.69 µM
same,TGI,[2],14.8 µM
same,GI50,[4],1.19 µM
same,TGI,[4],3.85 µM
same,GI50,[5],1.45 µM
same,TGI,[5],3.59 µM
same,GI50,[7],2.72 µM
same,TGI,[7],8.61 µM
same,GI50,[9],1.01 µM
same,TGI,[9],3.76 µM
NS(=O)(=O)c1ccc(NC(=O)c2cccn3c(=O)c4ccccc4nc23)cc1,TGI,[1],> 100 µM
same,TGI,[2],> 100 µM
same,TGI,[3],> 100 µM
same,TGI,[5],> 100 µM
same,TGI,[6],> 100 µM
same,TGI,[7],> 100 µM
C[N+](C)=c1nc(N2CCOCC2)ss1,TGI,[1],> 100 µM
same,TGI,[8],> 100 µM
same,TGI,[2],> 100 µM
same,TGI,[3],> 100 µM
same,TGI,[4],> 100 µM
same,TGI,[5],> 100 µM
same,TGI,[6],> 100 µM
same,TGI,[7],> 100 µM
O=c1oc2ccc(F)cc2c(=O)n1-c1ccc(Br)cc1F,GI50,[1],2.79 µM
same,TGI,[1],9.42 µM
same,GI50,[8],0.46 µM
same,TGI,[8],3.98 µM
same,GI50,[3],0.393 µM
same,TGI,[3],3.69 µM
same,GI50,[4],1.29 µM
same,TGI,[4],10.9 µM
same,GI50,[5],1.64 µM
same,TGI,[5],7.25 µM
same,GI50,[6],1.85 µM
same,TGI,[6],9.74 µM
same,GI50,[7],0.444 µM
same,TGI,[7],22.7 µM
same,GI50,[9],0.651 µM
same,TGI,[9],7.61 µM
same,GI50,[10],2.04 µM
same,TGI,[10],> 29.5 µM
O=C(/C=C/c1cn(-c2ccccc2)nc1-c1ccc([N+](=O)[O-])cc1)c1ccc(Cl)cc1,GI50,[1],3.94 µM
same,TGI,[1],55.3 µM
same,GI50,[8],5.03 µM
same,TGI,[8],23 µM
same,TGI,[2],> 100 µM
same,GI50,[3],> 21.3 µM
same,TGI,[3],> 100 µM
same,GI50,[5],14.9 µM
same,TGI,[5],51.1 µM
same,GI50,[6],> 22.3 µM
same,TGI,[6],> 100 µM
same,GI50,[7],3.54 µM
same,TGI,[7],> 100 µM
same,GI50,[9],1.22 µM
same,TGI,[9],> 100 µM
CC(=O)OCCC(O[Si](c1ccccc1)(c1ccccc1)C(C)(C)C)C(C)(C)O (stereo unspecified),TGI,[1],77.2 µM
same,TGI,[8],> 100 µM
same,TGI,[4],> 100 µM
same,TGI,[6],> 100 µM
same,TGI,[7],> 100 µM
O=C(O)[C@@H]1CCCC[C@@H]1C(=O)N(C1CCCCC1)C1CCCCC1,TGI,[1],> 100 µM
same,TGI,[8],> 100 µM
same,TGI,[2],> 100 µM
same,TGI,[3],> 100 µM
same,TGI,[4],> 100 µM
same,TGI,[5],> 100 µM
same,TGI,[6],> 100 µM
same,TGI,[7],> 100 µM
CCN(CC)CCOc1ccc(/C=C2\CC3C4CC=C5C[C@@H](OC(C)=O)CC[C@]5(C)C4CC[C@]3(C)C2=O)cc1OC (stereo partly specified),GI50,[1],2.03 µM
same,TGI,[1],4.29 µM
same,GI50,[8],5.1 µM
same,TGI,[8],> 100 µM
same,GI50,[3],0.429 µM
same,TGI,[3],2.52 µM
same,GI50,[4],2.96 µM
same,TGI,[4],10 µM
same,GI50,[5],4.34 µM
same,TGI,[5],16.8 µM
same,GI50,[6],16.7 µM
same,TGI,[6],36.3 µM
same,GI50,[7],4.65 µM
same,TGI,[7],16.4 µM
same,GI50,[9],38.2 µM
same,TGI,[9],> 100 µM
O=[N+]([O-])C1C2C=CC(C2)[C@H]1c1ccc(Cl)cc1Cl (stereo partly specified),TGI,[1],> 100 µM
same,TGI,[8],> 100 µM
same,TGI,[2],53.2 µM
same,TGI,[4],> 100 µM
CN(C)C(=O)SC1=C(c2c(Cl)cccc2Cl)C(=O)c2ccccc21,GI50,[1],10.3 µM
same,TGI,[1],22.4 µM
same,GI50,[8],7.12 µM
same,TGI,[8],13.7 µM
same,GI50,[2],2.84 µM
same,TGI,[2],6.53 µM
same,GI50,[3],2.15 µM
same,TGI,[3],5.72 µM
same,GI50,[4],2.2 µM
same,TGI,[4],6.28 µM
same,GI50,[5],18.7 µM
same,TGI,[5],36.7 µM
same,GI50,[6],17.4 µM
same,TGI,[6],40.3 µM
same,GI50,[7],4.78 µM
same,TGI,[7],11.4 µM
same,GI50,[10],2.51 µM
same,TGI,[10],7.73 µM
CC(c1ccccc1)N1CC(C)(c2ccccc2)N(O)C(c2ccccc2)C1C (stereo unspecified),TGI,[1],30.2 µM
same,TGI,[8],28 µM
same,TGI,[2],13.5 µM
same,TGI,[5],38.9 µM
same,TGI,[6],62.1 µM
same,TGI,[7],> 100 µM
COc1cc2cccc(N=Cc3c(Br)ccc(OC)c3OC(C)C)c2cc1OC,TGI,[1],69.9 µM
same,TGI,[8],> 100 µM
same,TGI,[3],70.2 µM
same,TGI,[5],> 100 µM
same,TGI,[6],> 100 µM
same,TGI,[7],> 100 µM
c1ccc(NC[Si]23OCCN(CCO2)CCO3)cc1,TGI,[1],> 100 µM
same,TGI,[8],> 100 µM
same,TGI,[3],> 100 µM
same,TGI,[6],> 100 µM
same,TGI,[7],> 100 µM
COc1ccc(NC(=O)c2sc3nc4c(cc3c2N)CCCC4)cc1,GI50,[1],0.36 µM
same,TGI,[1],30.5 µM
same,GI50,[8],0.369 µM
same,TGI,[8],4.69 µM
same,GI50,[2],0.252 µM
same,TGI,[2],0.624 µM
same,GI50,[4],0.471 µM
same,TGI,[4],> 100 µM
same,GI50,[5],0.752 µM
same,TGI,[5],> 100 µM
same,GI50,[6],1.13 µM
same,TGI,[6],> 100 µM
same,GI50,[7],0.929 µM
same,TGI,[7],> 100 µM
same,GI50,[9],0.547 µM
same,TGI,[9],96.9 µM
same,GI50,[10],0.348 µM
same,TGI,[10],> 100 µM
COc1ccc(C2NCCc3c2[nH]c2ccccc32)cc1 (stereo unspecified),TGI,[1],> 100 µM
same,TGI,[2],> 100 µM
same,TGI,[4],> 100 µM
same,TGI,[5],> 100 µM
same,TGI,[6],> 100 µM
same,TGI,[7],> 100 µM
Cc1cc(=O)oc2cc(OCCn3c(C)nn(-c4ccc(Cl)cc4)c3=O)ccc12,GI50,[1],5.7 µM
same,TGI,[1],> 100 µM
same,GI50,[8],18.2 µM
same,TGI,[8],> 100 µM
same,GI50,[3],> 100 µM
same,TGI,[3],> 100 µM
same,GI50,[4],3.2 µM
same,TGI,[4],> 100 µM
same,GI50,[5],3.05 µM
same,TGI,[5],32.9 µM
same,GI50,[6],> 100 µM
same,TGI,[6],> 100 µM
same,GI50,[7],35 µM
same,TGI,[7],> 100 µM
same,GI50,[9],7.55 µM
same,TGI,[9],> 100 µM
same,GI50,[10],2.7 µM
same,TGI,[10],> 100 µM
C=CC1=CC(C)C[C@]1(O)C(=O)OC (stereo partly specified),GI50,[1],> 100 µM
same,GI50,[8],> 100 µM
same,GI50,[2],> 100 µM
same,GI50,[3],> 100 µM
same,TGI,[4],> 100 µM
same,GI50,[5],> 100 µM
same,GI50,[6],> 100 µM
same,GI50,[7],> 100 µM
COc1ccc2[nH]c3c(=O)[nH]ncc3c2c1,TGI,[1],> 100 µM
same,TGI,[8],> 100 µM
same,TGI,[2],> 100 µM
same,TGI,[4],> 100 µM
same,TGI,[5],> 100 µM
same,TGI,[6],> 100 µM
same,TGI,[7],> 100 µM
